Measurements taken from PMC3681608 (Nature chemical biology, 2010).
Where a name gives a salt, the structure may show the parent alone.

Legend:
[1] = target: CK1γ1 (Homo sapiens, UniProt Q9HCP0); assay: fluorescence ligand dot blot with purified kinase at […] pyrvinium; type: binding
[2] = target: CK1ε (Homo sapiens, UniProt P49674); assay: as above; type: binding
CK1ε, sequence (P49674 whole entry): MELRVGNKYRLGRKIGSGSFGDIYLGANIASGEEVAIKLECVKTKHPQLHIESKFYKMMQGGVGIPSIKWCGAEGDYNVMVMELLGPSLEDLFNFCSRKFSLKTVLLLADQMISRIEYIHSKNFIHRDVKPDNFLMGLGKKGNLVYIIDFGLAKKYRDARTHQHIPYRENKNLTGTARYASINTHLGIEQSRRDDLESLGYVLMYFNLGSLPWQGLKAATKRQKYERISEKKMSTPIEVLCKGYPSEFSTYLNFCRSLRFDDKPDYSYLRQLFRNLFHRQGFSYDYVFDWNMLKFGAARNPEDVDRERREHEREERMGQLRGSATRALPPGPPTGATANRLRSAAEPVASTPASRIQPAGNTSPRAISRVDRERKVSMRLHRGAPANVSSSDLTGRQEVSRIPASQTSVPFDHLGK

CK1γ1, sequence (Q9HCP0 whole entry): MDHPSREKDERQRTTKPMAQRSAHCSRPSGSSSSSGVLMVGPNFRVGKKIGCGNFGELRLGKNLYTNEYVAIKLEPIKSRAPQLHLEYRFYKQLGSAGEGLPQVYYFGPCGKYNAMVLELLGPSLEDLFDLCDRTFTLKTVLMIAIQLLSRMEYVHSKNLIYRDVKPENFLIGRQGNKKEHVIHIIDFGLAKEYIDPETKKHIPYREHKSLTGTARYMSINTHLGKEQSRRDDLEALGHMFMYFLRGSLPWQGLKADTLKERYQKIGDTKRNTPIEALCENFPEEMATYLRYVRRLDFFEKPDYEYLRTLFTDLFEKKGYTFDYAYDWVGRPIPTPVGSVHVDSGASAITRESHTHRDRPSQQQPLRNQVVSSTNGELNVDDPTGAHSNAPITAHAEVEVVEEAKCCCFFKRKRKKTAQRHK

Cc1cc(/C=C/c2ccc3cc(N(C)C)ccc3[n+]2C)c(C)n1-c1ccccc1 [compound 1, 6-(dimethylamino)-2-[2-(2,5-dimethyl-1-phenyl-1H-pyrrol-3-yl)ethenyl]-1-me thyl-quinolinium pamoate salt]
fluorescence ligand dot blot with purified kinase at 10 nM pyrvinium [1]: Pyrvinium binds all full-length CK1 isoforms tested but only activates CK1α. | fluorescence ligand dot blot with purified kinase at 10 nM pyrvinium [2]: Pyrvinium binds all full-length CK1 isoforms tested but only activates CK1α.
